Test results: patent publication US20230085307A1, “PYRIDAZINONE COMPOUND AND HERBICIDE” (NISSAN CHEMICAL CORPORATION, priority 2019, published 2023)

What was measured:
velvetleaf [1] = assay: Test Example 4: herbicidal effect by soil treatment (Table 19, symbol M); type: in vivo, velvetleaf (Abutilon theophrasti); details: AAH 320 g/ha
In short: (§1)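 Soil-surface application: an emulsion agent diluted with water to the predetermined dose is sprayed uniformly over seeds lying under roughly 1.5 cm of sterilized diluvial soil. Boxes stay in a greenhouse at 25° C. to 30° C. Three weeks later, each species is graded on previously defined criteria.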

wild oat [2] = assay: Test Example 5: herbicidal effect by foliage application, plastic box (Table 20, symbol I); type: in vivo, wild oat (Avena fatua); details: foliage application, 320 g/ha, 3 weeks after application
In short: (§2)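 Sow seeds spot-wise in sterilized diluvial soil; cover with ~1.5 cm soil. Grow 14 days in greenhouse, 25° C. to 30° C. Spray foliage with emulsion diluted to predetermined amount. Rate effect after 3 weeks.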

chickweed = assay: Test Example 4: herbicidal effect by soil treatment (Table 19, symbol P); type: in vivo, common chickweed (Stellaria media); details: AAH 320 g/ha
In short: as §1

persian speedwell [3] = assay: Test Example 4: herbicidal effect by soil treatment (Table 19, symbol R); type: in vivo, Persian speedwell (Veronica persica); details: AAH 320 g/ha
In short: as §1

persian speedwell [4] = assay: Test Example 5: herbicidal effect by foliage application, plastic box (Table 20, symbol R); type: in vivo, Persian speedwell (Veronica persica); details: foliage application, 320 g/ha, 3 weeks after application
In short: as §2

rice flat sedge = assay: Test Example 3: herbicidal effect by foliage application, Wagner pot (Table 18, symbol E); type: in vivo, rice flat sedge (Cyperus iria); details: 320 g/ha
In short: (§3)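 Plants were sown in alluvial soil held under 0.1–0.5 cm standing water and grown 14 days in a greenhouse at 25–30 °C. An emulsifiable formulation, water-diluted to the set dose, was then sprayed onto the foliage, and effects were scored three weeks later using previously defined criteria.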

barnyard grass [5] = assay: Test Example 3: herbicidal effect by foliage application, Wagner pot (Table 18, symbol H); type: in vivo, barnyard grass (Echinochloa crus-galli); details: 320 g/ha
In short: as §3

redroot pigweed = assay: Test Example 4: herbicidal effect by soil treatment (Table 19, symbol N); type: in vivo, redroot pigweed (Amaranthus retroflexus); details: AAH 320 g/ha
In short: as §1

southern crabgrass [6] = assay: Test Example 4: herbicidal effect by soil treatment (Table 19, symbol F); type: in vivo, southern crabgrass (Digitaria ciliaris); details: AAH 320 g/ha
In short: as §1

green foxtail [7] = assay: Test Example 5: herbicidal effect by foliage application, plastic box (Table 20, symbol G); type: in vivo, green foxtail (Setaria viridis); details: foliage application, 320 g/ha, 3 weeks after application
In short: as §2

Italian ryegrass [8] = assay: Test Example 5: herbicidal effect by foliage application, plastic box (Table 20, symbol K); type: in vivo, Italian ryegrass (Lolium multiflorum); details: foliage application, 320 g/ha, 3 weeks after application
In short: as §2

green foxtail [9] = assay: Test Example 4: herbicidal effect by soil treatment (Table 19, symbol G); type: in vivo, green foxtail (Setaria viridis); details: AAH 320 g/ha
In short: as §1

lambsquarters [10] = assay: Test Example 4: herbicidal effect by soil treatment (Table 19, symbol O); type: in vivo, lambsquarters (Chenopodium album); details: AAH 320 g/ha
In short: as §1

Chinese sprangletop = assay: Test Example 3: herbicidal effect by foliage application, Wagner pot (Table 18, symbol D); type: in vivo, chinese sprangletop (Leptochloa chinensis); details: 320 g/ha
In short: as §3

barnyard grass [11] = assay: Test Example 5: herbicidal effect by foliage application, plastic box (Table 20, symbol H); type: in vivo, barnyard grass (Echinochloa crus-galli); details: foliage application, 320 g/ha, 3 weeks after application
In short: as §2

velvetleaf [12] = assay: Test Example 5: herbicidal effect by foliage application, plastic box (Table 20, symbol M); type: in vivo, velvetleaf (Abutilon theophrasti); details: foliage application, 320 g/ha, 3 weeks after application
In short: as §2

Italian ryegrass [13] = assay: Test Example 4: herbicidal effect by soil treatment (Table 19, symbol K); type: in vivo, Italian ryegrass (Lolium multiflorum); details: AAH 320 g/ha
In short: as §1

windgrass [14] = assay: Test Example 4: herbicidal effect by soil treatment (Table 19, symbol L); type: in vivo, windgrass (Apera spica-venti); details: AAH 320 g/ha
In short: as §1

lambsquarters [15] = assay: Test Example 5: herbicidal effect by foliage application, plastic box (Table 20, symbol O); type: in vivo, lambsquarters (Chenopodium album); details: foliage application, 320 g/ha, 3 weeks after application
In short: as §2

wild oat [16] = assay: Test Example 4: herbicidal effect by soil treatment (Table 19, symbol I); type: in vivo, wild oat (Avena fatua); details: AAH 320 g/ha
In short: as §1

blackgrass [17] = assay: Test Example 5: herbicidal effect by foliage application, plastic box (Table 20, symbol J); type: in vivo, blackgrass (Alopecurus myosuroides); details: foliage application, 320 g/ha, 3 weeks after application
In short: as §2

barnyard grass [18] = assay: Test Example 4: herbicidal effect by soil treatment (Table 19, symbol H); type: in vivo, barnyard grass (Echinochloa crus-galli); details: AAH 320 g/ha
In short: as §1

blackgrass [19] = assay: Test Example 4: herbicidal effect by soil treatment (Table 19, symbol J); type: in vivo, blackgrass (Alopecurus myosuroides); details: AAH 320 g/ha
In short: as §1

windgrass [20] = assay: Test Example 5: herbicidal effect by foliage application, plastic box (Table 20, symbol L); type: in vivo, windgrass (Apera spica-venti); details: foliage application, 320 g/ha, 3 weeks after application
In short: as §2

southern crabgrass [21] = assay: Test Example 5: herbicidal effect by foliage application, plastic box (Table 20, symbol F); type: in vivo, southern crabgrass (Digitaria ciliaris); details: foliage application, 320 g/ha, 3 weeks after application
In short: as §2

In the case of `COCCSCc1ccc(-c2sc3ccccc3c2-c2c(O)c(C)nn(C)c2=O)cc1` [1-251], the “M: velvetleaf, herbicidal effect rating” value (velvetleaf [1]) is reported as 0 (Herbicidal rate of 5% or less (almost no effect)), the “effect on wild oat (I)” value (wild oat [2]) is reported as 0 (Herbicidal rate of 5% or less (almost no effect)) and the “P: chickweed, herbicidal effect rating” value (chickweed) is reported as 0 (Herbicidal rate of 5% or less (almost no effect)). For the same compound, the “R: persian speedwell, herbicidal effect rating” value (persian speedwell [3]) was 4 (Herbicidal rate of 70% or more and less than 90%), the “effect on persian speedwell (R)” value (persian speedwell [4]) was 5 (Herbicidal rate of 90% or more (almost completely withered)) and the “herbicidal effect on E (rice flat sedge), rating 0-5” value (rice flat sedge) was 3 (Herbicidal rate of 40% or more and less than 70%). For the same compound, the “herbicidal effect on H (barnyard grass), rating 0-5” value (barnyard grass [5]) was 5 (Herbicidal rate of 90% or more (almost completely withered)), the “N: redroot pigweed, herbicidal effect rating” value (redroot pigweed) was 0 (Herbicidal rate of 5% or less (almost no effect)) and the “F: southern crabgrass, herbicidal effect rating” value (southern crabgrass [6]) was 0 (Herbicidal rate of 5% or less (almost no effect)). The “effect on green foxtail (G)” value (green foxtail [7]) was 5 (Herbicidal rate of 90% or more (almost completely withered)), the “effect on Italian ryegrass (K)” value (Italian ryegrass [8]) was 4 (Herbicidal rate of 70% or more and less than 90%) and the “G: green foxtail, herbicidal effect rating” value (green foxtail [9]) was 0 (Herbicidal rate of 5% or less (almost no effect)). For the same compound, the “O: lambsquarters, herbicidal effect rating” value (lambsquarters [10]) was 0 (Herbicidal rate of 5% or less (almost no effect)), the “herbicidal effect on D (Chinese sprangletop), rating 0-5” value (Chinese sprangletop) was 3 (Herbicidal rate of 40% or more and less than 70%) and the “effect on barnyard grass (H)” value (barnyard grass [11]) was 4 (Herbicidal rate of 70% or more and less than 90%). For the same compound, the “effect on velvetleaf (M)” value (velvetleaf [12]) was 5 (Herbicidal rate of 90% or more (almost completely withered)), the “K: Italian ryegrass, herbicidal effect rating” value (Italian ryegrass [13]) was 0 (Herbicidal rate of 5% or less (almost no effect)) and the “L: windgrass, herbicidal effect rating” value (windgrass [14]) was 0 (Herbicidal rate of 5% or less (almost no effect)). For the same compound, the “effect on lambsquarters (O)” value (lambsquarters [15]) was 4 (Herbicidal rate of 70% or more and less than 90%), the “I: wild oat, herbicidal effect rating” value (wild oat [16]) was 0 (Herbicidal rate of 5% or less (almost no effect)) and the “effect on blackgrass (J)” value (blackgrass [17]) was 3 (Herbicidal rate of 40% or more and less than 70%). For the same compound, the “H: barnyard grass, herbicidal effect rating” value (barnyard grass [18]) was 0 (Herbicidal rate of 5% or less (almost no effect)), the “J: blackgrass, herbicidal effect rating” value (blackgrass [19]) was 0 (Herbicidal rate of 5% or less (almost no effect)) and the “effect on windgrass (L)” value (windgrass [20]) was 0 (Herbicidal rate of 5% or less (almost no effect)). The “effect on southern crabgrass (F)” value (southern crabgrass [21]) was 1 (Herbicidal rate of 5% or more and less than 20%).
